According to ChEMBL document CHEMBL1125606, “Synthesis and binding of [125I2]philanthotoxin-343, [125I2]philanthotoxin-343-lysine, and [125I2]philanthotoxin-343-arginine to rat brain membranes” (J Med Chem, 1991):

Organism: Rattus norvegicus
Experiment: Percent control measured by evaluating the inhibition of 3 nM [125I]PhTX-343-lysine binding to glutamate receptors in rat cortical membranes
Assay type: cell membranes
Set-up: scale not given: the % may be the effect or the level left
Details: Membrane

Structure (SMILES)	Activity
O=[N+]([O-])c1cc2nc(O)c(O)nc2cc1[N+](=O)[O-]	102%
NC(CCCP(=O)(O)O)C(=O)O (stereo unspecified)	94%
c1ccc(C2(N3CCCCC3)CCCCC2)cc1	81%
C=C(C)[C@H]1CN[C@H](C(=O)O)[C@H]1CC(=O)O	103%
N[C@@H](CCC(=O)O)C(=O)O	99%
CCCC(=O)N[C@@H](Cc1ccc(O)cc1)C(=O)NCCCCNCCCNCCCN	32.7%
CNC(CCC(=O)O)C(=O)O (stereo unspecified)	96%
NCC(=O)O	109%
NCCCNCCCCNCCCN	14.4%
N[C@@H](Cn1oc(=O)[nH]c1=O)C(=O)O	104%
C[C@]12N[C@H](Cc3ccccc31)c1ccccc12	92%
